From patent US11160767B2, “4,4′-trans-dihydroxystilbene for use in treating cancer” (The George Washington University, a Congressionally …, priority 2017, dated 2021)

Assays:
[1] = test system: HCT116 cells, U2OS cells, MDA-231/GFP cells, and PANC-1 cells; test: Cytotoxicity across the four cancer cell lines (SAR summary); assay type: cell-based
Experimental: In vitro cytotoxicity assays. Cells growing in the Log phase were treated with various compounds at different concentrations (generally 0.137 to 100 μM) for 72 hours at 37° C. SRB assay (Vichai and Kirtikara, 2006) was performed and the absorbance at 510 nm was read with a plate reader. The proliferation rate was calculated according to the Manufacturer's instruction. The IC50 value for each compound was determined from dose-effect relationship using the CompuSyn software (version 1.0.1; CompuSyn, Inc, Paramus, N.J.) (Chou, 2006). Cell proliferating doubling time was monitored over a period of 72 hours.
Based on identification of resveratrol as a lead compound in the drug screening assays, the anti-cancer activity of synthetic resveratrol analogs (FIG. 2) was next investigated and compared to resveratrol using HCT116 cells, U2OS cells, MDA-231/GFP cells, and PANC-1 cells.
The structure activity relationship (SAR) of the derivatives of resveratrol were considered.

[2] = target: T1, truncated-RRM2 protein (deletion of GLU147 to ILE166) (Homo sapiens, UniProt P31350, DEL147-166); test: Thermal shift assay, truncated RRM2; assay type: cell-based; settings: HCT116 cells
T1 construct: expressed in transfected cells; host or cells: HCT116
Description: To verify the DHS binding site on RRM2, a RRM2 construct with a deletion of GLU147 to ILE166 was generated. […] Since Hu is also known to interact with RRM2 protein, the effect of DHS on Hu binding to RRM2 was investigated using a cellular thermal shift assay with KB-Hu (an Hu resistant oral cancer cell line).

RRM1 and RRM2 proteins = target: T2, RRM1 and RRM2 proteins (Homo sapiens, UniProt P31350); test: RRM1 and RRM2 protein levels by Western blot; assay type: cell-based; settings: HCT116 cells
T2 construct: endogenous in cells; host or cells: HCT116
Experimental: (§1) Western blot analysis. Compound-treated cells were harvested and lysed. Protein extracts were subjected to electrophoresis in a SDS-polyacrylamide gel. The resolved proteins were transferred onto polyvinylidene difluoride membranes (Amersham Biosciences, Piscataway, N.J., US). After the blocking step, membranes were incubated with primary IgG antibodies, washed, and then incubated with horseradish peroxidase-conjugated anti-rabbit IgG or anti-mouse IgG secondary antibodies. Western blot signals were visualized by chemiluminescence using SuperSignal West Pico chemiluminescence reagent (Pierce, Rockford, Ill., US).
The effect of DHS treatment on And-1, RRM1, and RRM2 expression was investigated.

And-1 = target: T3, And-1 (Homo sapiens, UniProt O75717); test: Cellular thermal shift assay, And-1; assay type: cell-based; settings: HCT116 cells
T3 construct: endogenous in cells; host or cells: HCT116
Experimental: In order to study the mechanisms by which DHS induces down-regulation of And-1, RRM1, and RRM2 proteins, DHS-resistant HCT116 cells were generated (FIG. 9C). […] Next, it was investigated whether DHS directly binds to And-1, RRM1, or RRM2. A cellular thermal shift assay (Jafari et al., 2014) was conducted for And-1 (FIG. 9E). […] A coimmunoprecipitation (CoIP) assay was conducted to determine whether And-1, RRM1, and RRM2 interact in the same complex. The result implied that […] (FIG. 9F).

cancer cell lines = test: NCI Development Therapeutics Program cell line growth; assay type: cell-based; settings: NCI DTP cell lines
Experimental: To confirm the cell killing effect of DHS, a clonogenic colony formation assay was conducted. […] The effect of DHS on growth of cancer cell lines was analyzed using The NCI Development Therapeutics Program (DTP).

SKOV3 = test: DHS and cisplatin, SKOV3 cells; assay type: cell-based, human
Description: The effect of DHS on a human SKOV3 ovarian cell line and its cisplatin-resistant subline, SKOV3/CP7, was investigated.

[3] = test system: phosphor-Chk1 (pChk1, Serine 345); test: DNA damage markers by Western blot; assay type: cell-based, human; settings: HCT116 cells, 10 μM for 20 minutes
Experimental: as §1
To investigate whether inhibition of DNA replication by DHS can trigger DNA damage, the DNA damage markers phosphor-Chk1 (pChk1, Serine 345) and phosphor-Chk2 (pChk2, Threonine 68) were analyzed in DHS-treated HCT116 cells. […] A comet assay was next used to test if DNA double strand breaks are induced by DHS.

T1 sequence (P31350 with tags, fused parts or gaps DEL147-166): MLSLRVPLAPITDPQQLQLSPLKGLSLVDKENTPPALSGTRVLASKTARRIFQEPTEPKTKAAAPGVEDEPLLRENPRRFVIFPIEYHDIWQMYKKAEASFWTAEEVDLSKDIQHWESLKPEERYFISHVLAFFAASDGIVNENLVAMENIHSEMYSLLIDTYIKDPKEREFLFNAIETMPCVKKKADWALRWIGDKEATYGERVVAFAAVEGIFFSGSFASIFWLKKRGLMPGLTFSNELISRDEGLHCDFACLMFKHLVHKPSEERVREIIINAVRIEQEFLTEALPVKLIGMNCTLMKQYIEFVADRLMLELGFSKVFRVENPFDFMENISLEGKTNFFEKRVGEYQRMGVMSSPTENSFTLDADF
T3 sequence (O75717 whole entry): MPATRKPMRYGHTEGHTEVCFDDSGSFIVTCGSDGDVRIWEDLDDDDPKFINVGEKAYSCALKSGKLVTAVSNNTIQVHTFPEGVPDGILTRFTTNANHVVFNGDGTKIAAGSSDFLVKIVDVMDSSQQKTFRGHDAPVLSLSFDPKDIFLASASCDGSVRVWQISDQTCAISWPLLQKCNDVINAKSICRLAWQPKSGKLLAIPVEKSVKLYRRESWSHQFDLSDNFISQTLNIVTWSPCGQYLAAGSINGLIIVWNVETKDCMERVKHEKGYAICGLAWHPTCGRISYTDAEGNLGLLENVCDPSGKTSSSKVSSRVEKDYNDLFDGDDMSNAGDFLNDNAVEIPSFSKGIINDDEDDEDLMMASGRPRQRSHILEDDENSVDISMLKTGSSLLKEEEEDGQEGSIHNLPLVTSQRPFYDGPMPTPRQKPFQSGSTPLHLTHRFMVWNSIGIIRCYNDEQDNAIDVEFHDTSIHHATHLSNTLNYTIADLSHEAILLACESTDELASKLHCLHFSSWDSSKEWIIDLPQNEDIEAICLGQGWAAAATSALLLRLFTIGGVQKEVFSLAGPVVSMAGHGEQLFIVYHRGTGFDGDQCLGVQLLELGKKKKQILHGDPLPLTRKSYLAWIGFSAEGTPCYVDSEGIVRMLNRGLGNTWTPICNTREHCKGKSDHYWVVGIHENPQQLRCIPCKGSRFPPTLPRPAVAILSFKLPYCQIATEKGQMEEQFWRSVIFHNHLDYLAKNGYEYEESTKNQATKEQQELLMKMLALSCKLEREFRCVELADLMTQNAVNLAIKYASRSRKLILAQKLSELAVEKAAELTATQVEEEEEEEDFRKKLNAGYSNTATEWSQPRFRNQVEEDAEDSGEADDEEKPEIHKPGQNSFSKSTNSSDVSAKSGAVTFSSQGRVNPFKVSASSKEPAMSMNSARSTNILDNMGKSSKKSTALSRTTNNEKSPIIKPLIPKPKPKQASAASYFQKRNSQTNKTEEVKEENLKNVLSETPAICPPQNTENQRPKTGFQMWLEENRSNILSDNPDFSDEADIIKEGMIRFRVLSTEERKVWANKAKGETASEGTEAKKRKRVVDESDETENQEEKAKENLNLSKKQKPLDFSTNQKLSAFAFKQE
T2 sequence (P31350 whole entry): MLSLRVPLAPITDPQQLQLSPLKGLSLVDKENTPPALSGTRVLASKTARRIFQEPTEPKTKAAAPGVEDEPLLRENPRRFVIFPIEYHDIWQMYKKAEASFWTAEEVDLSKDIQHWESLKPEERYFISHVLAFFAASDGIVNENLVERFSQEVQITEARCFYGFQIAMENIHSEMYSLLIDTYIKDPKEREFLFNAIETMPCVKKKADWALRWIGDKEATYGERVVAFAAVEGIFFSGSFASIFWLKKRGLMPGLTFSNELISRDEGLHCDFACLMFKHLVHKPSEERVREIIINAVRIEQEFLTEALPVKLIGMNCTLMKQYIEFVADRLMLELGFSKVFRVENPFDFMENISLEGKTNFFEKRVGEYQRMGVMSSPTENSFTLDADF

Binding to And-1 (cellular thermal shift) (And-1): does not bind to And-1
SMILES: Oc1ccc(/C=C/c2ccc(O)cc2)cc1 [DHS, 4,4′-trans-dihydroxystilbene]
Potency relative to resveratrol according to the IC50 values [1]: 10 times
IC50 ([1]; range over four cell lines): 2.3 to 22 µM
Thermal stability of truncated RRM2 [2]: not able to maintain thermal stability of the truncated-RRM2 protein
RRM1 and RRM2 protein levels (RRM1 and RRM2 proteins): caused down-regulation of RRM1 and RRM2 proteins
Cancer cell growth (GI50) compared to resveratrol (cancer cell lines): improved effect on suppressing cancer cell growth as compared to resveratrol
Sensitivity to DHS alone (SKOV3): sensitive to DHS treatment alone
DNA damage (phosphorylated CHK1, pSerine 345) [3]: more potent than resveratrol and the other analogs
